Test results from the supplement of paper PMC8882468.

The molecules below were run on HCI-001 (organoid from a triple-negative breast cancer xenograft) (assay: CTG-3D luminescence at 96 h relative to day-0 seeding control (ratio to day 0); higher = more growth / less cytotoxicity; PDxO 3D drug screen, 96 h, CTG-3D normalised to day-0 seeding control.). Details: 0.1 µM; days in culture: 269.
`NC1(C(=O)N[C@@H](CCO)c2ccc(Cl)cc2)CCN(c2nc[nH]c3nccc2-3)CC1` [capivasertib] was tested, and the “CTG-3D luminescence at 96 h” value was 1.34. `CC(C)n1nc(-c2ccc3oc(N)nc3c2)c2c(N)ncnc21` [sapanisertib] was tested, and the “CTG-3D luminescence at 96 h” value was 0.45. In the case of `O=C(c1ccc(F)c(F)c1Nc1ccc(I)cc1F)N1CC(O)([C@@H]2CCCCN2)C1` [cobimetinib], the “CTG-3D luminescence at 96 h” value was 1.49. For `C[C@H](NC(=O)CCC(F)(F)F)C(=O)N[C@@H]1C(=O)N(CCO)c2ncccc2-c2ccccc21` [crenigacestat], the “CTG-3D luminescence at 96 h” value was 1.29. `Cc1cc(Nc2ncc(Cl)c(Nc3ccccc3S(=O)(=O)C(C)C)n2)c(OC(C)C)cc1C1CCNCC1` [ceritinib] was tested, and the “CTG-3D luminescence at 96 h” value was 1.82. With `CS(=O)(=O)c1ccc(C(=O)Nc2ccc(Cl)c(-c3ccccn3)c2)c(Cl)c1` [vismodegib] the “CTG-3D luminescence at 96 h” value was 1.36. `NC(=O)c1cccc2cn(-c3ccc([C@@H]4CCCNC4)cc3)nc12` [niraparib] was tested, and the “CTG-3D luminescence at 96 h” value was 1.32. `Cc1cc(Nc2ncnc3ccc(NC4=NC(C)(C)CO4)cc23)ccc1Oc1ccn2ncnc2c1` [tucatinib] was tested, and the “CTG-3D luminescence at 96 h” value was 1.64. `CCN(c1cc(C#CCN2CCOCC2)cc(C(=O)NCc2c(C)cc(C)[nH]c2=O)c1C)[C@H]1CC[C@H](N(C)CCOC)CC1` was tested, and the “CTG-3D luminescence at 96 h” value was 1.27.

Same assay, conditions: 0.1 µM; days in culture: 327
`NC1(C(=O)N[C@@H](CCO)c2ccc(Cl)cc2)CCN(c2nc[nH]c3nccc2-3)CC1` [capivasertib] was tested, and the “CTG-3D luminescence at 96 h” value was 1.35. `CC(C)n1nc(-c2ccc3oc(N)nc3c2)c2c(N)ncnc21` [sapanisertib] was tested, and the “CTG-3D luminescence at 96 h” value was 0.802. With `O=C(c1ccc(F)c(F)c1Nc1ccc(I)cc1F)N1CC(O)([C@@H]2CCCCN2)C1` [cobimetinib] the “CTG-3D luminescence at 96 h” value was 1.75. In the case of `C[C@H](NC(=O)CCC(F)(F)F)C(=O)N[C@@H]1C(=O)N(CCO)c2ncccc2-c2ccccc21` [crenigacestat], the “CTG-3D luminescence at 96 h” value was 1.87. In the case of `Cc1cc(Nc2ncc(Cl)c(Nc3ccccc3S(=O)(=O)C(C)C)n2)c(OC(C)C)cc1C1CCNCC1` [ceritinib], the “CTG-3D luminescence at 96 h” value was 1.78. With `CS(=O)(=O)c1ccc(C(=O)Nc2ccc(Cl)c(-c3ccccn3)c2)c(Cl)c1` [vismodegib] the “CTG-3D luminescence at 96 h” value was 1.87. In the case of `NC(=O)c1cccc2cn(-c3ccc([C@@H]4CCCNC4)cc3)nc12` [niraparib], the “CTG-3D luminescence at 96 h” value was 1.8. `Cc1cc(Nc2ncnc3ccc(NC4=NC(C)(C)CO4)cc23)ccc1Oc1ccn2ncnc2c1` [tucatinib] was tested, and the “CTG-3D luminescence at 96 h” value was 1.75. `CCN(c1cc(C#CCN2CCOCC2)cc(C(=O)NCc2c(C)cc(C)[nH]c2=O)c1C)[C@H]1CC[C@H](N(C)CCOC)CC1` was tested, and the “CTG-3D luminescence at 96 h” value was 1.94.

Same assay, conditions: 0.1 µM; days in culture: 346
`NC1(C(=O)N[C@@H](CCO)c2ccc(Cl)cc2)CCN(c2nc[nH]c3nccc2-3)CC1` [capivasertib] was tested, and the “CTG-3D luminescence at 96 h” value was 1. In the case of `CC(C)n1nc(-c2ccc3oc(N)nc3c2)c2c(N)ncnc21` [sapanisertib], the “CTG-3D luminescence at 96 h” value was 0.528. In the case of `O=C(c1ccc(F)c(F)c1Nc1ccc(I)cc1F)N1CC(O)([C@@H]2CCCCN2)C1` [cobimetinib], the “CTG-3D luminescence at 96 h” value was 1.14. `C[C@H](NC(=O)CCC(F)(F)F)C(=O)N[C@@H]1C(=O)N(CCO)c2ncccc2-c2ccccc21` [crenigacestat] was tested, and the “CTG-3D luminescence at 96 h” value was 1.08. For `Cc1cc(Nc2ncc(Cl)c(Nc3ccccc3S(=O)(=O)C(C)C)n2)c(OC(C)C)cc1C1CCNCC1` [ceritinib], the “CTG-3D luminescence at 96 h” value was 1.24. `CS(=O)(=O)c1ccc(C(=O)Nc2ccc(Cl)c(-c3ccccn3)c2)c(Cl)c1` [vismodegib] was tested, and the “CTG-3D luminescence at 96 h” value was 1.34. With `NC(=O)c1cccc2cn(-c3ccc([C@@H]4CCCNC4)cc3)nc12` [niraparib] the “CTG-3D luminescence at 96 h” value was 1.4. With `Cc1cc(Nc2ncnc3ccc(NC4=NC(C)(C)CO4)cc23)ccc1Oc1ccn2ncnc2c1` [tucatinib] the “CTG-3D luminescence at 96 h” value was 1. For `CCN(c1cc(C#CCN2CCOCC2)cc(C(=O)NCc2c(C)cc(C)[nH]c2=O)c1C)[C@H]1CC[C@H](N(C)CCOC)CC1`, the “CTG-3D luminescence at 96 h” value was 1.4.

Same assay, conditions: 0.1 µM; days in culture: 364
For `NC1(C(=O)N[C@@H](CCO)c2ccc(Cl)cc2)CCN(c2nc[nH]c3nccc2-3)CC1` [capivasertib], the “CTG-3D luminescence at 96 h” value was 0.928. In the case of `CC(C)n1nc(-c2ccc3oc(N)nc3c2)c2c(N)ncnc21` [sapanisertib], the “CTG-3D luminescence at 96 h” value was 0.397. `O=C(c1ccc(F)c(F)c1Nc1ccc(I)cc1F)N1CC(O)([C@@H]2CCCCN2)C1` [cobimetinib] was tested, and the “CTG-3D luminescence at 96 h” value was 0.986. In the case of `C[C@H](NC(=O)CCC(F)(F)F)C(=O)N[C@@H]1C(=O)N(CCO)c2ncccc2-c2ccccc21` [crenigacestat], the “CTG-3D luminescence at 96 h” value was 1. With `Cc1cc(Nc2ncc(Cl)c(Nc3ccccc3S(=O)(=O)C(C)C)n2)c(OC(C)C)cc1C1CCNCC1` [ceritinib] the “CTG-3D luminescence at 96 h” value was 0.954. `CS(=O)(=O)c1ccc(C(=O)Nc2ccc(Cl)c(-c3ccccn3)c2)c(Cl)c1` [vismodegib] was tested, and the “CTG-3D luminescence at 96 h” value was 1.34. `NC(=O)c1cccc2cn(-c3ccc([C@@H]4CCCNC4)cc3)nc12` [niraparib] was tested, and the “CTG-3D luminescence at 96 h” value was 1.33. In the case of `Cc1cc(Nc2ncnc3ccc(NC4=NC(C)(C)CO4)cc23)ccc1Oc1ccn2ncnc2c1` [tucatinib], the “CTG-3D luminescence at 96 h” value was 0.88. For `CCN(c1cc(C#CCN2CCOCC2)cc(C(=O)NCc2c(C)cc(C)[nH]c2=O)c1C)[C@H]1CC[C@H](N(C)CCOC)CC1`, the “CTG-3D luminescence at 96 h” value was 1.19.

Same assay, conditions: 1 µM; days in culture: 240
With `NC1(C(=O)N[C@@H](CCO)c2ccc(Cl)cc2)CCN(c2nc[nH]c3nccc2-3)CC1` [capivasertib] the “CTG-3D luminescence at 96 h” value was 0.604. With `CC(C)n1nc(-c2ccc3oc(N)nc3c2)c2c(N)ncnc21` [sapanisertib] the “CTG-3D luminescence at 96 h” value was 0.551. `O=C(c1ccc(F)c(F)c1Nc1ccc(I)cc1F)N1CC(O)([C@@H]2CCCCN2)C1` [cobimetinib] was tested, and the “CTG-3D luminescence at 96 h” value was 1.32. In the case of `C[C@H](NC(=O)CCC(F)(F)F)C(=O)N[C@@H]1C(=O)N(CCO)c2ncccc2-c2ccccc21` [crenigacestat], the “CTG-3D luminescence at 96 h” value was 1.36. For `Cc1cc(Nc2ncc(Cl)c(Nc3ccccc3S(=O)(=O)C(C)C)n2)c(OC(C)C)cc1C1CCNCC1` [ceritinib], the “CTG-3D luminescence at 96 h” value was 0.858. In the case of `CS(=O)(=O)c1ccc(C(=O)Nc2ccc(Cl)c(-c3ccccn3)c2)c(Cl)c1` [vismodegib], the “CTG-3D luminescence at 96 h” value was 1.5. For `NC(=O)c1cccc2cn(-c3ccc([C@@H]4CCCNC4)cc3)nc12` [niraparib], the “CTG-3D luminescence at 96 h” value was 1.61. With `Cc1cc(Nc2ncnc3ccc(NC4=NC(C)(C)CO4)cc23)ccc1Oc1ccn2ncnc2c1` [tucatinib] the “CTG-3D luminescence at 96 h” value was 1.37. `CCN(c1cc(C#CCN2CCOCC2)cc(C(=O)NCc2c(C)cc(C)[nH]c2=O)c1C)[C@H]1CC[C@H](N(C)CCOC)CC1` was tested, and the “CTG-3D luminescence at 96 h” value was 1.48.

Same assay, conditions: 1 µM; days in culture: 260
With `NC1(C(=O)N[C@@H](CCO)c2ccc(Cl)cc2)CCN(c2nc[nH]c3nccc2-3)CC1` [capivasertib] the “CTG-3D luminescence at 96 h” value was 0.652. For `CC(C)n1nc(-c2ccc3oc(N)nc3c2)c2c(N)ncnc21` [sapanisertib], the “CTG-3D luminescence at 96 h” value was 0.652. `O=C(c1ccc(F)c(F)c1Nc1ccc(I)cc1F)N1CC(O)([C@@H]2CCCCN2)C1` [cobimetinib] was tested, and the “CTG-3D luminescence at 96 h” value was 1.58. `C[C@H](NC(=O)CCC(F)(F)F)C(=O)N[C@@H]1C(=O)N(CCO)c2ncccc2-c2ccccc21` [crenigacestat] was tested, and the “CTG-3D luminescence at 96 h” value was 1.54. In the case of `Cc1cc(Nc2ncc(Cl)c(Nc3ccccc3S(=O)(=O)C(C)C)n2)c(OC(C)C)cc1C1CCNCC1` [ceritinib], the “CTG-3D luminescence at 96 h” value was 1.21. `CS(=O)(=O)c1ccc(C(=O)Nc2ccc(Cl)c(-c3ccccn3)c2)c(Cl)c1` [vismodegib] was tested, and the “CTG-3D luminescence at 96 h” value was 1.57. For `NC(=O)c1cccc2cn(-c3ccc([C@@H]4CCCNC4)cc3)nc12` [niraparib], the “CTG-3D luminescence at 96 h” value was 1.53. `Cc1cc(Nc2ncnc3ccc(NC4=NC(C)(C)CO4)cc23)ccc1Oc1ccn2ncnc2c1` [tucatinib] was tested, and the “CTG-3D luminescence at 96 h” value was 0.756. For `CCN(c1cc(C#CCN2CCOCC2)cc(C(=O)NCc2c(C)cc(C)[nH]c2=O)c1C)[C@H]1CC[C@H](N(C)CCOC)CC1`, the “CTG-3D luminescence at 96 h” value was 1.85.

Same assay, conditions: 1 µM; days in culture: 269
In the case of `NC1(C(=O)N[C@@H](CCO)c2ccc(Cl)cc2)CCN(c2nc[nH]c3nccc2-3)CC1` [capivasertib], the “CTG-3D luminescence at 96 h” value was 0.734. In the case of `CC(C)n1nc(-c2ccc3oc(N)nc3c2)c2c(N)ncnc21` [sapanisertib], the “CTG-3D luminescence at 96 h” value was 0.559. In the case of `O=C(c1ccc(F)c(F)c1Nc1ccc(I)cc1F)N1CC(O)([C@@H]2CCCCN2)C1` [cobimetinib], the “CTG-3D luminescence at 96 h” value was 1.26. With `C[C@H](NC(=O)CCC(F)(F)F)C(=O)N[C@@H]1C(=O)N(CCO)c2ncccc2-c2ccccc21` [crenigacestat] the “CTG-3D luminescence at 96 h” value was 1.39. In the case of `Cc1cc(Nc2ncc(Cl)c(Nc3ccccc3S(=O)(=O)C(C)C)n2)c(OC(C)C)cc1C1CCNCC1` [ceritinib], the “CTG-3D luminescence at 96 h” value was 1.23. With `CS(=O)(=O)c1ccc(C(=O)Nc2ccc(Cl)c(-c3ccccn3)c2)c(Cl)c1` [vismodegib] the “CTG-3D luminescence at 96 h” value was 1.13. With `NC(=O)c1cccc2cn(-c3ccc([C@@H]4CCCNC4)cc3)nc12` [niraparib] the “CTG-3D luminescence at 96 h” value was 1.1. `Cc1cc(Nc2ncnc3ccc(NC4=NC(C)(C)CO4)cc23)ccc1Oc1ccn2ncnc2c1` [tucatinib] was tested, and the “CTG-3D luminescence at 96 h” value was 1.38. For `CCN(c1cc(C#CCN2CCOCC2)cc(C(=O)NCc2c(C)cc(C)[nH]c2=O)c1C)[C@H]1CC[C@H](N(C)CCOC)CC1`, the “CTG-3D luminescence at 96 h” value was 1.24.

Same assay, conditions: 1 µM; days in culture: 327
`NC1(C(=O)N[C@@H](CCO)c2ccc(Cl)cc2)CCN(c2nc[nH]c3nccc2-3)CC1` [capivasertib] was tested, and the “CTG-3D luminescence at 96 h” value was 0.84. In the case of `CC(C)n1nc(-c2ccc3oc(N)nc3c2)c2c(N)ncnc21` [sapanisertib], the “CTG-3D luminescence at 96 h” value was 0.759. For `O=C(c1ccc(F)c(F)c1Nc1ccc(I)cc1F)N1CC(O)([C@@H]2CCCCN2)C1` [cobimetinib], the “CTG-3D luminescence at 96 h” value was 1.43. For `C[C@H](NC(=O)CCC(F)(F)F)C(=O)N[C@@H]1C(=O)N(CCO)c2ncccc2-c2ccccc21` [crenigacestat], the “CTG-3D luminescence at 96 h” value was 1.24. With `Cc1cc(Nc2ncc(Cl)c(Nc3ccccc3S(=O)(=O)C(C)C)n2)c(OC(C)C)cc1C1CCNCC1` [ceritinib] the “CTG-3D luminescence at 96 h” value was 1.24. For `CS(=O)(=O)c1ccc(C(=O)Nc2ccc(Cl)c(-c3ccccn3)c2)c(Cl)c1` [vismodegib], the “CTG-3D luminescence at 96 h” value was 1.93.
